# ChEMBL document CHEMBL3885881, “DrugMatrix”
# Species: Rattus norvegicus
# Assay: DrugMatrix - Regimen: Daily Repeat
# Type: toxicity, organism-based, Sprague-Dawley
# Parameters: regimen Daily Repeat, gender Male, age 6-8 weeks
# Details: in vivo, iv, vehicle 100 % SALINE; for ABSOLUTE BASOPHIL / ABSOLUTE EOSINOPHIL / ABSOLUTE LYMPHOCYTE / ABSOLUTE MONOCYTE / ABSOLUTE SEGMENTED NEUTROPHIL / BASOPHIL / EOSINOPHIL / ERYTHROCYTE COUNT / HEMATOCRIT / HEMOGLOBIN / LEUKOCYTE COUNT / LYMPHOCYTE / MEAN CORPUSCULAR HEMOGLOBIN / MEAN CORPUSCULAR HEMOGLOBIN CONCENTRATION / MEAN CORPUSCULAR VOLUME / MONOCYTE / NEUTROPHIL / NUCLEATED RED BLOOD CELLS / PLATELET COUNT: tissue Blood; for ALANINE AMINOTRANSFERASE / ALBUMIN / ALKALINE PHOSPHATASE / ASPARTATE AMINOTRANSFERASE / BLOOD UREA NITROGEN / CARBON DIOXIDE / CHLORIDE / CHOLESTEROL / CREATINE PHOSPHOKINASE / CREATININE / GLUCOSE / LACTATE DEHYDROGENASE / LIPASE / PHOSPHORUS / POTASSIUM / SODIUM / TOTAL BILIRUBIN / TOTAL PROTEIN / URIC ACID: tissue Plasma
# [1] = 3 mg/kg, 120 h, dose level Low, time 5 day
# [2] = 54 mg/kg, 72 h, dose level High, time 3 day
# [3] = 54 mg/kg, 120 h, dose level High, time 5 day
smiles,measurement,setting,value
O=c1[nH]c(=O)n([C@H]2C[C@H](O)[C@@H](CO)O2)cc1F [FLOXURIDINE],ABSOLUTE BASOPHIL,[1],0 CELLS/uL
same,ABSOLUTE EOSINOPHIL,[1],0 CELLS/uL
same,ABSOLUTE LYMPHOCYTE,[1],11533 CELLS/uL
same,ABSOLUTE MONOCYTE,[1],174 CELLS/uL
same,ABSOLUTE SEGMENTED NEUTROPHIL,[1],693 CELLS/uL
same,BASOPHIL,[1],0%
same,EOSINOPHIL,[1],0%
same,ERYTHROCYTE COUNT,[1],5.61 x10E6/uL
same,HEMATOCRIT,[1],34.57%
same,HEMOGLOBIN,[1],13.83 G/DL
same,LEUKOCYTE COUNT,[1],12.4 x10E3/uL
same,LYMPHOCYTE,[1],93%
same,MEAN CORPUSCULAR HEMOGLOBIN,[1],24.7 pg
same,MEAN CORPUSCULAR HEMOGLOBIN CONCENTRATION,[1],40.03 G/DL
same,MEAN CORPUSCULAR VOLUME,[1],61.73 fL
same,MONOCYTE,[1],1.33%
same,NEUTROPHIL,[1],5.67%
same,NUCLEATED RED BLOOD CELLS,[1],0 /100WBC
same,PLATELET COUNT,[1],883.33 x10E3/uL
same,ALANINE AMINOTRANSFERASE,[1],53.33 u/L
same,ALBUMIN,[1],4.33 G/DL
same,ALKALINE PHOSPHATASE,[1],392.33 u/L
same,ASPARTATE AMINOTRANSFERASE,[1],95.67 u/L
same,BLOOD UREA NITROGEN,[1],18.67 mg/dL
same,CARBON DIOXIDE,[1],26.33 mmol/L
same,CHLORIDE,[1],102 MEQ/L
same,CHOLESTEROL,[1],64.67 mg/dL
same,CREATINE PHOSPHOKINASE,[1],328 u/L
same,CREATININE,[1],0.28 mg/dL
same,GLUCOSE,[1],167.33 mg/dL
same,LACTATE DEHYDROGENASE,[1],433.67 u/L
same,LIPASE,[1],10.33 u/L
same,PHOSPHORUS,[1],11.63 mg/dL
same,POTASSIUM,[1],6.75 MEQ/L
same,SODIUM,[1],142.7 MEQ/L
same,TOTAL BILIRUBIN,[1],0.23 mg/dL
same,TOTAL PROTEIN,[1],5.93 G/DL
same,URIC ACID,[1],1.83 mg/dL
same,ABSOLUTE BASOPHIL,[2],0 CELLS/uL
same,ABSOLUTE EOSINOPHIL,[2],0 CELLS/uL
same,ABSOLUTE LYMPHOCYTE,[2],10754.33 CELLS/uL
same,ABSOLUTE MONOCYTE,[2],75.67 CELLS/uL
same,ABSOLUTE SEGMENTED NEUTROPHIL,[2],703.33 CELLS/uL
same,BASOPHIL,[2],0%
same,EOSINOPHIL,[2],0%
same,ERYTHROCYTE COUNT,[2],5.48 x10E6/uL
same,HEMATOCRIT,[2],33.43%
same,HEMOGLOBIN,[2],13.3 G/DL
same,LEUKOCYTE COUNT,[2],11.53 x10E3/uL
same,LYMPHOCYTE,[2],93.33%
same,MEAN CORPUSCULAR HEMOGLOBIN,[2],24.33 pg
same,MEAN CORPUSCULAR HEMOGLOBIN CONCENTRATION,[2],39.83 G/DL
same,MEAN CORPUSCULAR VOLUME,[2],61.17 fL
same,MONOCYTE,[2],0.67%
same,NEUTROPHIL,[2],6%
same,NUCLEATED RED BLOOD CELLS,[2],0 /100WBC
same,PLATELET COUNT,[2],1073.67 x10E3/uL
same,ALANINE AMINOTRANSFERASE,[2],48.33 u/L
same,ALBUMIN,[2],4.13 G/DL
same,ALKALINE PHOSPHATASE,[2],268 u/L
same,ASPARTATE AMINOTRANSFERASE,[2],81.67 u/L
same,BLOOD UREA NITROGEN,[2],19 mg/dL
same,CARBON DIOXIDE,[2],28.67 mmol/L
same,CHLORIDE,[2],103.33 MEQ/L
same,CHOLESTEROL,[2],68.33 mg/dL
same,CREATINE PHOSPHOKINASE,[2],307.67 u/L
same,CREATININE,[2],0.18 mg/dL
same,GLUCOSE,[2],150.67 mg/dL
same,LACTATE DEHYDROGENASE,[2],152.33 u/L
same,LIPASE,[2],10.33 u/L
same,PHOSPHORUS,[2],9.83 mg/dL
same,POTASSIUM,[2],5.66 MEQ/L
same,SODIUM,[2],141.27 MEQ/L
same,TOTAL BILIRUBIN,[2],0.2 mg/dL
same,TOTAL PROTEIN,[2],5.67 G/DL
same,URIC ACID,[2],1.2 mg/dL
same,ABSOLUTE BASOPHIL,[3],0 CELLS/uL
same,ABSOLUTE EOSINOPHIL,[3],0 CELLS/uL
same,ABSOLUTE LYMPHOCYTE,[3],10553 CELLS/uL
same,ABSOLUTE MONOCYTE,[3],101.33 CELLS/uL
same,ABSOLUTE SEGMENTED NEUTROPHIL,[3],445.67 CELLS/uL
same,BASOPHIL,[3],0%
same,EOSINOPHIL,[3],0%
same,ERYTHROCYTE COUNT,[3],4.83 x10E6/uL
same,HEMATOCRIT,[3],31%
same,HEMOGLOBIN,[3],12.7 G/DL
same,LEUKOCYTE COUNT,[3],11.1 x10E3/uL
same,LYMPHOCYTE,[3],95%
same,MEAN CORPUSCULAR HEMOGLOBIN,[3],26.57 pg
same,MEAN CORPUSCULAR HEMOGLOBIN CONCENTRATION,[3],41.07 G/DL
same,MEAN CORPUSCULAR VOLUME,[3],64.57 fL
same,MONOCYTE,[3],1%
same,NEUTROPHIL,[3],4%
same,NUCLEATED RED BLOOD CELLS,[3],0 /100WBC
same,PLATELET COUNT,[3],1207.33 x10E3/uL
same,ALANINE AMINOTRANSFERASE,[3],45 u/L
same,ALBUMIN,[3],4.17 G/DL
same,ALKALINE PHOSPHATASE,[3],347 u/L
same,ASPARTATE AMINOTRANSFERASE,[3],84 u/L
same,BLOOD UREA NITROGEN,[3],17.67 mg/dL
same,CARBON DIOXIDE,[3],26.67 mmol/L
same,CHLORIDE,[3],102.33 MEQ/L
same,CHOLESTEROL,[3],52.67 mg/dL
same,CREATINE PHOSPHOKINASE,[3],429.33 u/L
same,CREATININE,[3],0.12 mg/dL
same,GLUCOSE,[3],154 mg/dL
same,LACTATE DEHYDROGENASE,[3],306 u/L
same,LIPASE,[3],9.33 u/L
same,PHOSPHORUS,[3],9.83 mg/dL
same,POTASSIUM,[3],5.61 MEQ/L
same,SODIUM,[3],142.1 MEQ/L
same,TOTAL BILIRUBIN,[3],0.17 mg/dL
same,TOTAL PROTEIN,[3],5.53 G/DL
same,URIC ACID,[3],1.5 mg/dL
